Results as given in patent US20210283117A1, “PROPHYLACTIC OR THERAPEUTIC AGENT FOR PROSTATE CANCER” (KEIO UNIVERSITY, priority 2018, published 2021).

Tests used:
DU145 cell lines [1] = assay: In vitro analysis of cabazitaxel resistance, number of living cells (WST-1); assay type: cell-based; conditions: Homo sapiens, DU-145, 24 hours
DU145CR cell lines [2] = assay: Antitumor effect on cabazitaxel-resistant CRPC mice, tumor volume; assay type: in vivo
Source text: The 1×10^6 DU145CR cell lines established in Example 5 were subcutaneously inoculated to castrated male nude mice (BALB/C) to prepare subcutaneous tumor model mice (cabazitaxel-resistant CRPC mice). When the tumor size reached about 100 mm^3, the subcutaneous tumor model mice were divided into three groups (control group, cabazitaxel administration group and cloperastine administration group). To the cloperastine administration group (n=5), a cloperastine hydrochloride (manufactured by Sigma-Aldrich Co. LLC) was orally administered daily at a dose of 12.5 mg/kg (body weight) per day in terms of cloperastine (“cloperastine administration group” in FIG. 7B). To the cabazitaxel administration group (n=5), cabazitaxel (manufactured by Carbosynth Limited) was intraperitoneally administered in a single dose of 10 mg/kg (body weight) (“cabazitaxel administration group” in FIG. 7B). On the other hand, any of the cloperastine hydrochloride and cabazitaxel was not administered to the control group (n=5) (“control group” in FIG. 7B). For the CRPC model mice and the cabazitaxel-resistant CRPC mice, tumor volumes were measured and an average value was calculated immediately after oral administration of the cloperastine hydrochloride (day 0) and 4 days, 8 days, 12 days and 16 days after the oral administration.

DU145CR cell lines [3] = assay: In vivo analysis of cabazitaxel resistance, subcutaneous tumor model mice (DU145CR vs DU145); conditions: cabazitaxel 10 mg/kg single intraperitoneal dose; 12 days after administration
Source text: The 1×10^6 established DU145CR cell lines and 1×10^6 DU145 cell lines were subcutaneously inoculated to castrated male nude mice (BALB/C), respectively, to prepare subcutaneous tumor model mice (DU145CR mice and DU145 mice). When the tumor size reached about 200 mm^3, the subcutaneous tumor model mice were divided into four groups (DU145 mouse group, cabazitaxel administration DU145 mouse group, DU145CR mouse group and cabazitaxel administration DU145CR mouse group), and to the cabazitaxel administration DU145 mouse group and the cabazitaxel administration DU145CR mouse group (n=5 for each group), cabazitaxel (manufactured by Carbosynth Limited) was intraperitoneally administered in a single dose of 10 mg/kg (body weight). Cabazitaxel was not administered to the DU145 mouse group and the DU145CR mouse group (n=5 for each group). Immediately after oral administration (day 0) and 4 days, 8 days and 12 days after the oral administration, tumor volumes were measured and an average value was calculated.

DU145 cell lines [4] = assay: Antitumor effect on CRPC model mice, tumor volume; assay type: in vivo
Source text: 1×10^6 metastatic CRPC cell lines (DU145 cell lines) were subcutaneously inoculated to castrated male nude mice (BALB/C) to prepare subcutaneous tumor model mice. When the tumor size reached about 100 mm^3, the subcutaneous tumor model mice (CRPC model mice) were divided into three groups (control group, cabazitaxel administration group and cloperastine administration group). To the cloperastine administration group (n=5), a cloperastine hydrochloride (manufactured by Sigma-Aldrich Co. LLC) was orally administered daily at a dose of 12.5 mg/kg (body weight) per day in terms of cloperastine (“cloperastine administration group” in FIG. 7A). To the cabazitaxel administration group (n=5), cabazitaxel (manufactured by Carbosynth Limited) was intraperitoneally administered in a single dose of 10 mg/kg (body weight) (“cabazitaxel administration group” in FIG. 7A). On the other hand, any of the cloperastine hydrochloride and cabazitaxel was not administered to the control group (n=5) (control group in FIG. 7A).
The 1×10^6 DU145CR cell lines established in Example 5 were subcutaneously inoculated to castrated male nude mice (BALB/C) to prepare subcutaneous tumor model mice (cabazitaxel-resistant CRPC mice). When the tumor size reached about 100 mm^3, the subcutaneous tumor model mice were divided into three groups (control group, cabazitaxel administration group and cloperastine administration group). To the cloperastine administration group (n=5), a cloperastine hydrochloride (manufactured by Sigma-Aldrich Co. LLC) was orally administered daily at a dose of 12.5 mg/kg (body weight) per day in terms of cloperastine (“cloperastine administration group” in FIG. 7B). […] For the CRPC model mice and the cabazitaxel-resistant CRPC mice, tumor volumes were measured and an average value was calculated immediately after oral administration of the cloperastine hydrochloride (day 0) and 4 days, 8 days, 12 days and 16 days after the oral administration.

DU145CR cell lines [5] = assay: Antitumor effect by use in combination with cabazitaxel, cabazitaxel-resistant CRPC mice, tumor volume; assay type: in vivo
Source text: The 5×10^6 DU145CR cell lines established in Example 5 were subcutaneously inoculated to castrated male nude mice (BALB/C) to prepare subcutaneous tumor model mice (cabazitaxel-resistant CRPC mice). When the tumor size reached about 100 mm^3, the subcutaneous tumor model mice were divided into four groups (control group, cabazitaxel administration group, cloperastine administration group and cloperastine+cabazitaxel administration group). To the cabazitaxel administration group (n=5), cabazitaxel (manufactured by Carbosynth Limited) was intraperitoneally administered in a single dose of 10 mg/kg (body weight). To the cloperastine administration group (n=5), a cloperastine hydrochloride (manufactured by Sigma-Aldrich Co. LLC) was orally administered daily at a dose of 12.5 mg/kg (body weight) per day in terms of cloperastine. To the cloperastine+cabazitaxel administration group (n=5), the cloperastine hydrochloride was orally administered daily at a dose of 12.5 mg/kg (body weight) per day in terms of cloperastine, and cabazitaxel (manufactured by Carbosynth Limited) was intraperitoneally administered in a single dose of 10 mg/kg (body weight). […] For the cabazitaxel-resistant CRPC mice, tumor volumes were measured and an average value was calculated immediately after oral administration (day 0) and 4 days, 8 days and 12 days after the oral administration.

DU145CR cell lines [6] = assay: In vitro analysis of cabazitaxel resistance, number of living cells (WST-1); assay type: cell-based; conditions: 24 hours
Protocol: DU145CR cell lines were established by culturing DU145 cell lines in the presence of 0.2 nM cabazitaxel (manufactured by Carbosynth Limited) for about 2 years while gradually increasing the cabazitaxel concentration to 3 nM.

DU145CR cell lines [7] = assay: TUNEL method (apoptosis); assay type: cell-based; conditions: 10 μM, 24 hours, vs culture without cloperastine
Protocol: (§1) For confirming that the cloperastine species has a cell growth suppressive effect and an apoptosis inducing effect on CRPC and cabazitaxel-resistant CRPC, metastatic CRPC cell lines (DU145 cell lines and PC3 cell lines) were cultured in the presence of the cloperastine species, and analysis was performed by an immunohistological staining method using an antibody to a cell growth marker (Ki67), and a TUNEL (TdT-mediateddUTPnickendlabeling) method.
(§2) DU145 cell lines and DU145CR cell lines were cultured on 96-well plates, respectively, for 24 hours, and to a culture solution, a cloperastine hydrochloride (manufactured by Sigma-Aldrich Co. LLC) was added to 10 μM. The cell lines were further cultured for 24 hours, and the cells were then fixed with 4% paraformaldehyde. The fixed cells were subjected to blocking treatment with a 1% BSA (bovine serum albumin) solution, and primary antibody reaction treatment with a Ki67 antibody (manufactured by Dako Company) was performed overnight at 4° C. […] The immunohistological-stained cell sample was observed under a phase-contrast microscope (see FIG. 8A), and the ratio of Ki67-positive cells was calculated. […] The cell sample stained by the TUNEL method was observed under a phase-contrast microscope (see FIG. 9A), and the ratio of TUNEL-positive cells (cells undergoing apoptosis) was calculated.

DU145 cell lines [8] = assay: TUNEL method (apoptosis); assay type: cell-based; conditions: 10 μM, 24 hours, vs culture without cloperastine
Protocol: as §1, §2

DU145 cell lines [9] = assay: Invasion assay, xCELLigence, Matrigel basement membrane matrix; assay type: cell-based; conditions: 1 μM cloperastine hydrochloride, 0 to 48 hours, vs control group
Protocol: For confirming the anti-prostate cancer effect of the cloperastine species, DU145 cell lines were cultured in the presence of the cloperastine species, and the invasiveness of the cell lines was analyzed (invasion assay).
To a culture solution added to each well of Real-Time Cell Analyzer xCELLigence (manufactured by ACEA Biosciences Inc.), a cloperastine hydrochloride (manufactured by Sigma-Aldrich Co. LLC) was added to 1 μM, and 4.0×10^4 DU145 cell lines were added. The cell lines were then cultured, and the number of cells passing through a Matrigel basement membrane matrix (manufactured by Corning Incorporated) was measured over time (0 to 48 hours) (cloperastine treatment group). As a control for comparison, DU145 cell lines were cultured in a culture solution free of a cloperastine hydrochloride, and the same experiment was conducted (control group).

normal cells = assay: Impact on growth of normal cells; assay type: cell-based; conditions: 1 μM
PC3 cell lines [10] = assay: EMT-related gene mRNA expression, quantitative PCR; assay type: cell-based; conditions: 10 μM cloperastine, 24 hours, vs control group
Protocol: (§3) For confirming that the cloperastine species has a suppressive effect on EMT in metastatic CRPC cells, metastatic CRPC cell lines (DU145 cell lines and PC3 cell lines) were cultured in the presence of the cloperastine species, and the gene expression profiles of EMT-related factors were analyzed.
(§4) DU145 cell lines and PC3 cell lines were cultured for 24 hours in the presence of 10 μM cloperastine or without cloperastine (cloperastine treatment group and control group, respectively), and mRNA was then extracted with “RNeasy Mini kit” (manufactured by QIAGEN Company). From the extracted mRNA, cDNA was synthesized with “PrimeScript RT reagent Kit” (manufactured by Takara Bio Inc.). For analyzing the mRNA expression levels of genes encoding six kinds of factors (E-cadherin, vimentin, “Zinc finger protein SNAI1”, “Zinc finger protein SNAI2”, “Zinc finger E-box-binding homeobox 1” and “Zinc finger E-box-binding homeobox 2”) (CDH1 gene, VIM gene, SNAI1 gene, SNAI2 gene, ZEB1 gene and ZEB2 gene, respectively), quantitative PCR analysis was performed with the primer and TaqMan probe sets (TaqMan Gene Expression Assays) (manufactured by Applied Biosystems Company) shown in Table 1 below, and CFX96 Real-Time System (manufactured by Bio-Rad Laboratories, Inc).

DU145 cell lines [11] = assay: EMT-related gene mRNA expression, quantitative PCR; assay type: cell-based; conditions: 10 μM cloperastine, 24 hours, vs control group
Protocol: as §3, §4

PC3 cell lines [12] = assay: Cell growth suppressive effect, number of living cells (Premix WST-1), Example 2; assay type: cell-based; conditions: cloperastine 0.1, 1, 10 μM, 24 hours, vs culture without cloperastine
Protocol: (§5) For confirming that the cloperastine species has a cell growth suppressive effect on metastatic CRPC, metastatic CRPC cell lines (DU145 cell lines and PC3 cell lines) were cultured in the presence of the cloperastine species, and the cell growth property was analyzed.
(§6) DU145 cell lines and PC3 cell lines (these cell lines were obtained from ATCC [American Type Culture Collection]) were cultured on a 96-well plate for 24 hours. […] As a control, an experiment was also conducted in which DU145 cell lines and PC3 cell lines were cultured in a culture solution free of a cloperastine hydrochloride.

DU145 cell lines [13] = assay: as above; assay type: cell-based; conditions: cloperastine 0.1, 1, 10 μM, 24 hours, vs culture without cloperastine
Protocol: as §5, §6

DU145CR cell lines [14] = assay: Ki67 immunohistological staining; assay type: cell-based; conditions: 10 μM, 24 hours, vs culture without cloperastine
Protocol: as §1, §2

DU145 cell lines [15] = assay: Ki67 immunohistological staining; assay type: cell-based; conditions: 10 μM, 24 hours, vs culture without cloperastine
Protocol: as §1, §2

C4-2AT6 cell lines = assay: Cell growth suppressive effect on enzalutamide-resistant prostate cancer cell lines (WST-1), Example 7; assay type: cell-based; conditions: cloperastine 0.1, 1, 10 μM, vs culture without cloperastine
Protocol: as §6
(§7) For confirming that the cloperastine species has a cell growth suppressive effect on enzalutamide-resistant prostate cancer and cabazitaxel-resistant prostate cancer, enzalutamide-resistant prostate cancer cell lines (C4-2AT6 cell lines) and cabazitaxel-resistant prostate cancer cell lines (DU145CR cell lines) were used to analyze the cell growth property in the presence of cloperastine species in accordance with the method described in Example 2.

DU145CR cell lines [16] = assay: Cell growth suppressive effect on cabazitaxel-resistant prostate cancer cell lines (WST-1), Example 7; assay type: cell-based; conditions: cloperastine 0.1, 1, 10 μM, vs culture without cloperastine
Protocol: as §6, §7

CO[C@H]1C(=O)[C@]2(C)[C@@H](OC)C[C@H]3OC[C@@]3(OC(C)=O)[C@H]2[C@H](OC(=O)c2ccccc2)[C@]2(O)C[C@H](OC(=O)[C@H](O)[C@@H](NC(=O)OC(C)(C)C)c3ccccc3)C(C)=C1C2(C)C [cabazitaxel]
IC50 (DU145 cell lines [1]): 3.8 nM | tumor volume (DU145CR cell lines [2]; cabazitaxel 10 mg/kg single intraperitoneal dose): hardly enabled suppression of an increase in tumor volume | tumor volume, cabazitaxel administration DU145CR mouse group vs cabazitaxel administration DU145 mouse group (DU145CR cell lines [3]): about twice | tumor volume vs control group (DU145 cell lines [4]; cabazitaxel 10 mg/kg single intraperitoneal dose, day 16, p<0.01): statistically significant difference between the cabazitaxel administration group and the control group | tumor volume vs control group (DU145CR cell lines [5]; cabazitaxel 10 mg/kg single i.p., day 12, p>0.05): no statistically significant difference | IC50 (DU145CR cell lines [6]): 11 nM

Clc1ccc([C@H](OCCN2CCCCC2)c2ccccc2)cc1 (racemic) [cloperastine, 1-{2-[(RS)-(4-chlorophenyl) (phenyl)methoxy]ethyl}piperidine]
ratio of TUNEL-positive cells (DU145CR cell lines [7]): higher ratio of TUNEL-positive cells | ratio of TUNEL-positive cells (DU145 cell lines [8]): higher ratio of TUNEL-positive cells | tumor volume (DU145CR cell lines [2]; 12.5 mg/kg per day oral, daily): considerably reduced the tumor volume | invasion of cells (DU145 cell lines [9]): significantly suppressed | impact on growth of normal cells (normal cells): no impact on growth of normal cells | expression level of mRNA encoding E-cadherin (PC3 cell lines [10]; PC3 (FIG. 2B)): higher | expression levels of mRNA encoding vimentin, SNAI1, SNAI2, ZEB1, ZEB2 (PC3 cell lines [10]; PC3): all lower | expression levels of mRNA encoding vimentin, SNAI1, SNAI2, ZEB1, ZEB2 (DU145 cell lines [11]): all lower | number of living cells (PC3 cell lines [12]): significantly smaller number of living cells in a concentration-dependent manner | number of living cells (DU145 cell lines [13]): significantly smaller number of living cells in a concentration-dependent manner | ratio of Ki67-positive cells (DU145CR cell lines [14]): lower ratio of Ki67-positive cells | ratio of Ki67-positive cells (DU145 cell lines [15]): lower ratio of Ki67-positive cells | tumor volume vs control group (DU145 cell lines [4]; 12.5 mg/kg per day oral, daily): smaller than the tumor volume in the control group | tumor volume decrease level vs cabazitaxel administration group (DU145 cell lines [4]; cloperastine 12.5 mg/kg per day oral vs cabazitaxel 10 mg/kg single i.p.): higher than the tumor volume decrease level in the cabazitaxel administration group | tumor volume vs control group (DU145CR cell lines [5]; cloperastine 12.5 mg/kg per day oral, day 12, p<0.001): statistically significant difference between the cloperastine administration group and the control group | number of living cells (C4-2AT6 cell lines): significantly smaller number of living cells in a concentration-dependent manner | number of living cells (DU145CR cell lines [16]): significantly smaller number of living cells in a concentration-dependent manner
